Reference: publication PMC7526454 (JCI Insight, 2020)
Where two headings read alike, the source gives them in different places. Each block holds one compound with its values, some of them ahead of it.

Tests used:
[1] = target: T1, human serum albumin (Homo sapiens, UniProt P02768); assay: Ligand affinity for albumin by albumin-shift cAMP assays (Schild regression); format: in vitro ADME; conditions: at 640 μM albumin, calculated from KA
T1 construct: For assays containing albumin from human serum; purchased MilliporeSigma A3782; host or cells: human serum
Description: Clonal HEK293 cells stably expressing either untagged human GIPR or human GLP-1R at various levels of receptor density were used for measurement of cAMP accumulation using the Gs Dynamic Assay and homogenous time-resolved fluorescence (62AM4PEJ, PerkinElmer). Corning 3570 white microtiter plates were used to collect 10 μL assay medium (DMEM, 31053, [Thermo Fisher Scientific], 2 mM Glutamax [35050, Thermo Fisher Scientific], 20 mM HEPES, 0.1% w/v bovine casein [4765, MilliporeSigma], and 250 μM isobutylmethylxanthine [IBMX] phosphodiesterase inhibitor) from a Multidrop Combi dispenser (Thermo Fisher Scientific). […] Vials of assay-ready cells were rapidly thawed from cryopreservation on the day of the assay. […] Time-resolved fluorescence was quantitated with a Pherastar FSX multilabel reader (BMG Labtech). Fluorescence data were analyzed by the ratio method, calibrated to external standards in a parallel processed plate, and reported as percent activation compared with vehicle minimum and native peptide maximum control wells. […]
Methods to quantify and predict the effect of albumin binding on biological activity in enzyme assays, receptor binding assays, and cell-based assays exist, but they are not currently widely employed ([57]–[59]). The general approach involves performing a bioassay in an albumin-free system and quantifying the effect of systematic titrations of albumin into the system. […]

[2] = steady state plasma total concentration, cited from earlier work
[3] = tested on: GLP-1R; conditions: read-out: in vitro EC50; cited from earlier work
Source text: (§1) We recognize that calculating pRO values has caveats (see Methods) and propose its use mainly for generating hypotheses and as a tool to probe mechanistic biology. For perspective, though, when examining the pRO values of other ligands, we observe that GLP-1R occupancy is also relatively low (about 10%). Based on established data, this makes sense in terms of the in vivo sensitivity of the GLP-1R system. […] In humans, active GLP-1 and GI ...

[4] = rodents, acute glucose challenge; read-out: in vivo EC50; cited from earlier work
Source text: as §1

[5] = target: T2, GLP-1R (Homo sapiens, UniProt P43220); assay: ARRB2 recruitment, CHO-K1 PathHunter enzyme fragment complementation; format: cell-based
[6] = target: T3, SNAP-tagged GLP-1R (Homo sapiens, UniProt P43220); assay: Real-time internalization assay, SNAP-tagged receptor; format: cell-based; conditions: HEK293; read-out: internalization of SNAP-tagged GLP-1R, Emax relative to GLP-1
T3 construct: expressed in transfected cells

[7] = target: T2, GLP-1R; assay: On-cell Western internalization assay, HA-GLP-1R-EGFP HEK293; format: cell-based; set-up: expressed in transfected cells; conditions: HEK293, surface GLP-1R 30 minutes after ligand, normalized to 1 μM GLP-1(7-36); mean (SEM, n); read-out: GLP-1R internalization, maximum effect relative to GLP-1

T2 sequence (P43220 24-463): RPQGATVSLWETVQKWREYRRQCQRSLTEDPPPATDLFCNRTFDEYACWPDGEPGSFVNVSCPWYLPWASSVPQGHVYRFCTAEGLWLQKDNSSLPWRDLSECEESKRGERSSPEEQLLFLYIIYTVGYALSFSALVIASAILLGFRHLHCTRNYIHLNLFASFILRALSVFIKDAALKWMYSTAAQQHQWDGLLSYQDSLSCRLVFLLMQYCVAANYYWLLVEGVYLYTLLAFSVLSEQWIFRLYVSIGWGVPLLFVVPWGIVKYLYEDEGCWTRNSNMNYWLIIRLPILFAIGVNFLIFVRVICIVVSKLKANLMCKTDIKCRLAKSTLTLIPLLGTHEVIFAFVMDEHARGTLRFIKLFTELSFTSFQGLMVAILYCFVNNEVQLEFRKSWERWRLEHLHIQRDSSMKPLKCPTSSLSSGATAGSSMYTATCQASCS
T3 sequence (P43220 24-463): as above
T1 sequence (P02768 25-609): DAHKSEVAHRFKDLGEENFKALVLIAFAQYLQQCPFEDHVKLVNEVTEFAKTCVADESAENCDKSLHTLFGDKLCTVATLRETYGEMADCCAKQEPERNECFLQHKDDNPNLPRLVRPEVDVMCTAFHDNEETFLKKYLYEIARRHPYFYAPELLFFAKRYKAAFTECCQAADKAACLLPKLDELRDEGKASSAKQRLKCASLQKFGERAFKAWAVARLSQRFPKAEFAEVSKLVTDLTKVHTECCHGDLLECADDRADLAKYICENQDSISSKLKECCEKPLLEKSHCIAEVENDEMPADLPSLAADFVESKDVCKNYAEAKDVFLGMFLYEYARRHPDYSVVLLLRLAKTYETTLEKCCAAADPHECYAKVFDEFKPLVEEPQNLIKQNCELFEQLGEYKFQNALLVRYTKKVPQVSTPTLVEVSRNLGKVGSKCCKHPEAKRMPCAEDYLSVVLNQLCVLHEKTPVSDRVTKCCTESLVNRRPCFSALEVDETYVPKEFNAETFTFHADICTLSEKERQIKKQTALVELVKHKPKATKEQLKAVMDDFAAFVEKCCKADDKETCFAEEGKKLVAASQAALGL

predicted unbound fraction [1]: 0.00072
Compound: CC[C@H](C)[C@H](NC(=O)[C@H](Cc1ccccc1)NC(=O)[C@H](CCC(=O)O)NC(=O)[C@H](CCCCNC(=O)COCCOCCNC(=O)COCCOCCNC(=O)CC[C@H](NC(=O)CCCCCCCCCCCCCCCCC(=O)O)C(=O)O)NC(=O)[C@H](C)NC(=O)[C@H](C)NC(=O)[C@H](CCC(N)=O)NC(=O)CNC(=O)[C@H](CCC(=O)O)NC(=O)[C@H](CC(C)C)NC(=O)[C@H](Cc1ccc(O)cc1)NC(=O)[C@H](CO)NC(=O)[C@H](CO)NC(=O)[C@@H](NC(=O)[C@H](CC(=O)O)NC(=O)[C@H](CO)NC(=O)[C@@H](NC(=O)[C@H](Cc1ccccc1)NC(=O)[C@@H](NC(=O)CNC(=O)[C@H](CCC(=O)O)NC(=O)C(C)(C)NC(=O)[C@@H](N)Cc1cnc[nH]1)[C@@H](C)O)[C@@H](C)O)C(C)C)C(=O)N[C@@H](C)C(=O)N[C@@H](Cc1c[nH]c2ccccc12)C(=O)N[C@@H](CC(C)C)C(=O)N[C@H](C(=O)N[C@@H](CCCNC(=N)N)C(=O)NCC(=O)N[C@@H](CCCNC(=N)N)C(=O)NCC(=O)O)C(C)C [Semaglutide, semaglutide]
Css (total) ([2]; semaglutide 0.5 mg clinical dose): 15 nM | Css (total) ([2]; semaglutide 1 mg clinical dose): 30 nM

Compound: exendin-4
EC50 [3]: 0.26 nM | EC50 [4]: 0.04 nM

Compound: CC[C@H](C)[C@H](NC(=O)[C@H](CC(C)C)NC(=O)[C@H](Cc1c[nH]c2ccccc12)NC(=O)[C@H](CCC(N)=O)NC(=O)[C@@H](NC(=O)[C@H](Cc1ccccc1)NC(=O)[C@H](C)NC(=O)[C@H](CCCCNC(=O)COCCOCCNC(=O)COCCOCCNC(=O)CC[C@H](NC(=O)CCCCCCCCCCCCCCCCCCC(=O)O)C(=O)O)NC(=O)[C@H](CCC(N)=O)NC(=O)[C@H](C)NC(=O)[C@@H](NC(=O)[C@H](CCCCN)NC(=O)[C@H](CC(=O)O)NC(=O)[C@H](CC(C)C)NC(=O)C(C)(C)NC(=O)[C@@H](NC(=O)[C@H](CO)NC(=O)[C@H](Cc1ccc(O)cc1)NC(=O)[C@H](CC(=O)O)NC(=O)[C@H](CO)NC(=O)[C@@H](NC(=O)[C@H](Cc1ccccc1)NC(=O)[C@@H](NC(=O)CNC(=O)[C@H](CCC(=O)O)NC(=O)C(C)(C)NC(=O)[C@@H](N)Cc1ccc(O)cc1)[C@@H](C)O)[C@@H](C)O)[C@@H](C)CC)[C@@H](C)CC)C(C)C)C(=O)N[C@@H](C)C(=O)NCC(=O)NCC(=O)N1CCC[C@H]1C(=O)N[C@@H](CO)C(=O)N[C@@H](CO)C(=O)NCC(=O)N[C@@H](C)C(=O)N1CCC[C@H]1C(=O)N1CCC[C@H]1C(=O)N1CCC[C@H]1C(=O)N[C@@H](CO)C(N)=O [Tirzepatide]
Emax [5]: < 10% | Emax [6]: < 40% | Emax [7]: 40%
